Measured values taken from patent publication US20140242012A1, “METHODS FOR TREATING UV-DAMAGED SKIN AND SCC TUMORS AND FOR REMOVING TATTOOS WITH TOPICAL INGENOL MEBUTATE” (LEO Laboratories Limited, priority 2011, published 2014).

Columns and labels:
[1] = Tattoo studies; format: in vivo, SKH1/hr mice; details: 50 μl topically daily for 2 days (Days 12 & 13), followed to Day 232, n=5
Procedure: Fifteen SKH1/hr mice are tattooed on their dorsa with an about 1 cm×about 1 cm cross using human grade blue tattoo ink (Tattoo supplies Australia, Catalogue number FFMB) on Day 0. Once the tattooed area heals (after 12 days), the tattoo (about 100 mm^2) is topically treated daily for 2 days with 50 μl of PEP005 gel or placebo gel (Day 12 & Day 13). Two PEP005 doses are tested: 0.1% and 0.25% (w/v). The mice are examined over time to assess any changes to the tattooed area and photographs are taken.
The aim study is to determine whether PEP005 gel can remove tattoo markings when applied topically. Fifteen mice are tattooed with a cross on their dorsa. Twelve days after the tattoos are drawn, they are treated topically daily for 2 days with 0.1% PEP005, 0.25% PEP005 or placebo gel. The photographs in FIG. 1 show the tattoo just prior to the first treatment (Day 12), 24 h after the first treatment (Day 13) and at different time points after the second treatment (from Day 14 onwards). […] One week after the second dose, an eschar encompassing the whole treatment area forms. This contracts over time and fully resolves after about 3 weeks (Day 32). […] Six to seven months after the PEP005 treatment is applied, the treated area heals, leaving skin with a slight pink tinge. […] There is no change in the placebo treated tattoos over this time frame. […]

[2] = tested on: UVB-damaged skin; assay: Skin appearance and histology after treatment of UVB-damaged skin; format: in vivo, SKH1/hr mice
Procedure: For histological studies samples were fixed in 10% formalin and processed for paraffin embedding at the indicated times after ingenol mebutate treatment. Paraffin sections were stained with haematoxylin and eosin (H&E), or toluidine blue using standard protocols.
(§1) Three days after the last dose of UVB irradiation, an about 4 cm^2 dorsal area was topically treated daily for 2 days with 40 μl of 0.05% PEP005 gel or placebo gel. The treatment area was demarcated by a tattoo. Mice were culled 6 h (6 h) and 24 h (Day 1) after the first dose of 0.05% PEP005 gel and 24 h after the second dose of 0.05% PEP005 gel or placebo gel (Day 2). The samples were fixed in 10% formalin and processed by QIMR histology for paraffin embedding. Paraffin sections were stained with haematoxylin and eosin (H&E), Leder stain or toludine blue by QIMR Histotechnology, in accordance with standard protocols.
To identify the histological changes after 0.05% PEP005 gel treatment, skin was examined at different times after treatment; 6 h after the first dose was applied (6 h), 24 h after the first dose was applied (Day 1), and 24 h after the second dose was applied (Day 2). Placebo treated mice were treated with equivalent volumes of placebo gel and the skin examined 24 h after the second dose.
as §1, with “a ˜4 cm2” for “an about 4 cm^2”
Three days after the last dose of UVB irradiation, a ˜4 cm^2 dorsal area is topically treated daily for 2 days with 40 μl of 0.05% PEP005 gel or placebo gel. The treatment area is demarcated by a tattoo. […]

[3] = Ogbourne et al. 2004; cited from earlier work

## C/C=C(/C)C(=O)O[C@H]1C(C)=C[C@]23C(=O)[C@@H](C=C(CO)[C@@H](O)[C@]12O)[C@H]1[C@@H](C[C@H]3C)C1(C)C [ingenol mebutate]
[1]
  removal of tattoo markings: eradication of the tattoo markings
[2]; 24-48 h after treatment initiation
  haemorrhage in treated skin: widespread haemorrhage
[2]; 24 h
  mast cells (toluidine blue staining): few toluidine blue staining cells could be seen
[2]; after healing up to 20-21 weeks, ~4 or ~10 cm2 area
  reduction of mean skin area within the tattooed treatment area: about 3 fold
[3]
  LD90 values: 180 to 220 µM
